Numbers after ± are expanded uncertainties.
Test: mn = molality of the nth substance listed, in mol/kg
Conditions: 101 kPa, Liquid; for electrical conductivity: METLER TOLEDO SevenEasyTM conductivity meter

CCCC[P+](CCCC)(CCCC)CCCC.[Br-] [tetrabutylphosphonium bromide] + O
Conditions	electrical conductivity, 298.15 K [S/m]	electrical conductivity, 303.15 K [S/m]	electrical conductivity, 308.15 K [S/m]	mass density, 298.15 K [kg/m3]	mass density, 303.15 K [kg/m3]	mass density, 308.15 K [kg/m3]	viscosity, 298.15 K [mPa·s]	viscosity, 303.15 K [mPa·s]	viscosity, 308.15 K [mPa·s]
m1 = 0.4996	1.61 ± 0.02	1.65 ± 0.02	1.72 ± 0.02	1008.5 ± 0.17	1006.58 ± 0.17	1004.44 ± 0.17	1.483 ± 0.16	1.282 ± 0.16	1.142 ± 0.16
m1 = 0.7513	1.81 ± 0.02	1.89 ± 0.02	1.99 ± 0.02	1013.67 ± 0.18	1011.4 ± 0.18	1008.98 ± 0.17	1.871 ± 0.16	1.677 ± 0.16	1.469 ± 0.16
m1 = 0.9998	1.93 ± 0.02	2.03 ± 0.02	2.15 ± 0.02	1017.95 ± 0.19	1015.41 ± 0.19	1012.75 ± 0.18	2.246 ± 0.17	1.915 ± 0.16	1.66 ± 0.16
m1 = 1.999	1.97 ± 0.02	2.08 ± 0.02	2.251 ± 0.02	1030.09 ± 0.22	1026.84 ± 0.22	1023.52 ± 0.22	3.875 ± 0.18	3.1 ± 0.17	2.61 ± 0.17
m1 = 2.999	1.84 ± 0.02	1.95 ± 0.02	2.13 ± 0.02	1037.03 ± 0.25	1033.51 ± 0.24	1029.96 ± 0.24	5.641 ± 0.2	4.589 ± 0.19	3.839 ± 0.18
m1 = 4.004	1.69 ± 0.02	1.81 ± 0.02	2 ± 0.02	1041.4 ± 0.27	1037.76 ± 0.27	1034.07 ± 0.26	7.374 ± 0.21	6.059 ± 0.2	5.037 ± 0.19
m1 = 4.994	1.54 ± 0.02	1.66 ± 0.02	1.85 ± 0.02	1044.28 ± 0.29	1040.58 ± 0.28	1036.87 ± 0.28	9.03 ± 0.23	7.403 ± 0.22	6.085 ± 0.2
m1 = 6.002	1.43 ± 0.02	1.54 ± 0.02	1.73 ± 0.02	1046.66 ± 0.31	1042.92 ± 0.3	1039.15 ± 0.29	10.65 ± 0.25	8.71 ± 0.23	7.101 ± 0.22
m1 = 6.503	1.4 ± 0.02	1.51 ± 0.02	1.68 ± 0.02	1047.29 ± 0.31	1043.96 ± 0.31	1039.91 ± 0.3	11.46 ± 0.27	9.333 ± 0.24	7.618 ± 0.22
m1 = 7.006	1.33 ± 0.02	1.44 ± 0.02	1.61 ± 0.02	1048.18 ± 0.32	1044.43 ± 0.31	1040.68 ± 0.3	12.29 ± 0.28	9.946 ± 0.25	8.17 ± 0.23
m1 = 8	–	–	–	1049.41 ± 0.33	1045.66 ± 0.32	1041.87 ± 0.31	–	–	–
m1 = 8.996	–	–	–	1050.43 ± 0.34	1046.7 ± 0.33	1042.93 ± 0.32	–	–	–

CCCC[P+](CC)(CCCC)CCCC.[Br-] [ethyltributylphosphonium bromide] + O
Conditions	electrical conductivity, 298.15 K [S/m]	electrical conductivity, 303.15 K [S/m]	electrical conductivity, 308.15 K [S/m]	mass density, 298.15 K [kg/m3]	mass density, 303.15 K [kg/m3]	mass density, 308.15 K [kg/m3]	viscosity, 298.15 K [mPa·s]	viscosity, 303.15 K [mPa·s]	viscosity, 308.15 K [mPa·s]
m1 = 0.5002	1.77 ± 0.02	1.83 ± 0.02	1.89 ± 0.02	1010.54 ± 0.17	1008.66 ± 0.17	1006.6 ± 0.17	1.404 ± 0.16	1.225 ± 0.16	1.084 ± 0.16
m1 = 0.7497	2.04 ± 0.02	2.14 ± 0.02	2.21 ± 0.02	1016.07 ± 0.18	1013.98 ± 0.18	1011.69 ± 0.18	1.801 ± 0.16	1.589 ± 0.16	1.426 ± 0.16
m1 = 1	2.21 ± 0.02	2.33 ± 0.02	2.41 ± 0.02	1021.34 ± 0.19	1018.99 ± 0.19	1016.49 ± 0.19	2.006 ± 0.17	1.742 ± 0.16	1.524 ± 0.16
m1 = 1.995	2.35 ± 0.02	2.49 ± 0.02	2.63 ± 0.02	1038.07 ± 0.23	1034.94 ± 0.23	1031.74 ± 0.23	3.177 ± 0.17	2.633 ± 0.17	2.19 ± 0.17
m1 = 3.001	2.2 ± 0.02	2.36 ± 0.02	2.55 ± 0.02	1048.55 ± 0.26	1045.08 ± 0.26	1041.59 ± 0.25	4.806 ± 0.19	3.978 ± 0.18	3.331 ± 0.17
m1 = 4	2.03 ± 0.02	2.21 ± 0.02	2.42 ± 0.02	1055.26 ± 0.29	1051.66 ± 0.28	1048.01 ± 0.28	6.391 ± 0.2	5.291 ± 0.19	4.447 ± 0.19
m1 = 4.997	1.87 ± 0.02	2.05 ± 0.02	2.25 ± 0.02	1060.4 ± 0.31	1056.71 ± 0.31	1053 ± 0.3	7.976 ± 0.22	6.54 ± 0.21	5.441 ± 0.2
m1 = 5.998	1.72 ± 0.02	1.9 ± 0.02	2.11 ± 0.02	1064.15 ± 0.33	1060.43 ± 0.32	1056.66 ± 0.32	9.681 ± 0.27	7.852 ± 0.22	6.459 ± 0.21
m1 = 6.501	1.65 ± 0.02	1.85 ± 0.02	2.06 ± 0.02	1065.49 ± 0.34	1062.17 ± 0.33	1058.22 ± 0.33	10.62 ± 0.29	8.579 ± 0.24	7.005 ± 0.21
m1 = 6.984	1.58 ± 0.02	1.78 ± 0.02	1.98 ± 0.02	1066.91 ± 0.34	1063.18 ± 0.34	1059.41 ± 0.33	11.58 ± 0.32	9.33 ± 0.26	7.561 ± 0.22
m1 = 8.001	–	–	–	1069.18 ± 0.36	1065.46 ± 0.35	1061.69 ± 0.34	–	–	–
m1 = 8.994	–	–	–	1070.97 ± 0.37	1067.25 ± 0.36	1063.49 ± 0.35	–	–	–

Source: the NIST ThermoML archive (doi:10.1021/je400101s)
